Values after ≈ are worked out from the molar mass of the structure shown.
Experiments:
[1] = Solubility test in pH 4.5 acetate buffer solution; type: physicochemical; conditions: for Solubility: saturated solution, 37° C., 200 rpm, 24 h
Method: Appropriate amounts of crystal forms I, II, III, and the compound of formula (I) were weighed and placed into 15 mL centrifuge tubes separately. A pH 4.5 acetate buffer was added to each tube to prepare saturated solutions. The tubes were sealed and placed in a water bath thermostatic oscillator to shake at 37° C. and a rotation speed of 200 rpm for 24 h. After centrifugation, the supernatants were collected and diluted to the corresponding multiples. The concentrations were measured. The detection was conducted according to the 2020 edition of the Chinese Pharmacopoeia.

[2] = Stability evaluation under influencing factors; type: physicochemical; conditions: for Purity decrease: 30 days vs day 0
Method: Appropriate amounts of crystal forms I, II. III, and the compound of formula (I) were taken and exposed to conditions of 60° C., RH (relative humidity) 92.5%, RH (relative humidity) 75%, and light, respectively. The samples were collected on day 30, and the purity of the samples and changes in XRPD were examined according to the 2020 edition of the Chinese Pharmacopoeia.

[3] = Pharmacokinetic evaluation test in rats; type: in vivo, SD rats; conditions: p.o. 100 mg/kg; for Pharmacokinetic properties: SD rats; for AUCinf—obs / AUClast / Cmax / tz1/2 (terminal half-life) / Tmax: male SD rats, 100 mg/kg; for AUCinf—obs / AUClast / Cmax / tz1/2 (terminal half-life): mean, n = 3; for Tmax: n = 3, Tmax in median
Method: • Animals: male SD rats • Animal administration and sample collection: Crystal forms I, II, and III were each dissolved in a mixture of 20% PEG400+80% (20% Captisol in 0.5% MC) to prepare administration formulation suspensions. The administration formulations were intragastrically administered to the SD rats at a dose of 100 mg/kg. Blood samples were collected at time points of 15 min, 30 min, 1 h, 2 h, 4 h, 6 h, 8 h, 24 h, 48 h, 72 h, and […] after administration.
One day before administration, the animals underwent jugular vein catheterization. After administration, about 300 μL of blood samples were collected via the jugular vein and then placed into anticoagulation tubes containing EDTA-K2. The blood samples were centrifuged at 4° C. and 8000 rpm for 10 min to yield plasma samples, which were prepared within 30 min after blood sample collection. The plasma samples were stored in a refrigerator at −80° C. before tests.
The samples to be tested were taken out from the refrigerator at −80° C., naturally thawed at room temperature, and then vortexed for 5 min. 20 μL of each of the 20-fold diluted plasma samples was precisely pipetted into a 1.5 mL centrifuge tube, and 300 μL of an internal standard working solution at a concentration of 10 ng/mL was added. The mixture was uniformly mixed, vortexed for 5 min, and then centrifuged at 12000 rpm for 5 mun.
50 μL of the supernatant was precisely pipetted into a 96-well plate to which water was added at 150 μL/well in advance, uniformly mixed by vortexing for 5 min, and analyzed by LC-MS/MS.
The sample to be tested was taken out from the refrigerator at −80° C., naturally thawed at room temperature, and then vortexed for 5 min. 2 μL of the plasma sample was precisely pipetted and then added, together with 28 μL of blank plasma, to a 1.5 mL centrifuge tube, and 450 μL of an internal standard working solution (a solution of tolbutamide in acetonitrile) at a concentration of 100 ng/mL was added. The mixture was uniformly mixed, vortexed for 5 min, and then centrifuged at 12000 rpm for 5 min. 50 μL of the supernatant was precisely pipetted into a 96-well plate to which water was added at 150 μL/well in advance, uniformly mixed by vortexing for 5 min, and analyzed by LC-MS/MS.
The test compound concentrations were output by Analyst 1.7.1 of AB Sciex. Parameters such as mean, standard deviation, and coefficient of variation were calculated by Microsoft Excel. PK parameters were calculated by Pharsight Phoenix 8.2 software NCA (Tmax was in median).

Row | Solubility compared to the amorphous form [1] | Solubility [1] [µg/mL] | Purity % ([2]; 0 day) [%] | Crystal form identification (XRPD) ([2]; 60° C., 30 days) | Purity % ([2]; 60° C., 30 days) [%] | Crystal form identification (XRPD) ([2]; Light exposure, 30 days) | Purity % ([2]; Light exposure, 30 days) [%] | Crystal form identification (XRPD) ([2]; RH 75%, 30 days) | Purity % ([2]; RH 75%, 30 days) [%] | Crystal form identification (XRPD) ([2]; RH 92.5%, 30 days) | Purity % ([2]; RH 92.5%, 30 days) [%] | Purity decrease ([2]; light exposure) [%] | Pharmacokinetic properties [3] | AUCinf—obs [3] [µg·h/mL] | AUClast [3] [µg·h/mL] | Cmax [3] [µg/mL] | tz1/2 (terminal half-life) [3] [h] | Tmax [3] [h] | SMILES | also measured
1 | higher solubility | 98 (≈ 154 µM) | 99.0 | Consistent with day 0 | 94.8 | Consistent with day 0 | 88.0 | Partially converted to amorphous | 98.7 | Partially converted to amorphous | 98.7 | 11 | very good pharmacokinetic properties | 2488.128 | 2482.493 | 142.333 | 9.39 | 2.00 | Nc1nccn2c(C34CCC(NC(=O)CN5CCOCC5)(CC3)C4)nc(-c3ccc(C(=O)Nc4cc(C(F)(F)F)ccn4)cc3)c12 (single isomer, unassigned) [Crystal form III, 4-(8-amino-3-(4-(2-morpholinoacetamido)bicyclo[2.2.1]heptan-1-yl)imidazo[1,5-a]pyrazin-1-yl)-N-(4-(trifluoromethyl)pyridin-2-yl)benzamide] | Purity decrease ([2]; high temperature of 60° C.): 4.2%
2 | – | 65 | 99.7 | Consistent with day 0 | 99.5 | Consistent with day 0 | 88.2 | Consistent with day 0 | 99.7 | Consistent with day 0 | 99.7 | 11.5 | – | – | – | – | – | – | Nc1nccn2c(C34CCC(NC(=O)CN5CCOCC5)(CC3)C4)nc(-c3ccc(C(=O)Nc4cc(C(F)(F)F)ccn4)cc3)c12 [Compound of formula (I), 4-(8-amino-3-(4-(2-morpholinoacetamido)bicyclo[2.2.1]heptan-1-yl)imidazo[1,5-a]pyrazin-1-yl)-N-(4-(trifluoromethyl)pyridin-2-yl)benzamide] | –
3 | higher solubility | 273 (≈ 430 µM) | 98.6 | Consistent with day 0 | 98.7 | Consistent with day 0 | 98.1 | Consistent with day 0 | 98.7 | Consistent with day 0 | 98.7 | 0.5 | very good pharmacokinetic properties | 1218.508 | 1208.628 | 96.267 | 10.4 | 1.00 | Nc1nccn2c(C34CCC(NC(=O)CN5CCOCC5)(CC3)C4)nc(-c3ccc(C(=O)Nc4cc(C(F)(F)F)ccn4)cc3)c12 (single isomer, unassigned) [Crystal form I, 4-(8-amino-3-(4-(2-morpholinoacetamido)bicyclo[2.2.1]heptan-1-yl)imidazo[1,5-a]pyrazin-1-yl)-N-(4-(trifluoromethyl)pyridin-2-yl)benzamide] | Change of crystal form (XRPD pattern) ([2]; all influencing factor conditions, 30 days): no changes in the crystal forms occurred; Stability compared to the amorphous form ([2]; influencing factors, 30 days): higher stability

From patent US20260167641A1, “CRYSTAL FORM OF IMIDAZOPYRAZINE DERIVATIVE, PREPARATION METHOD THEREFOR AND USE THEREOF” (TRANSTHERA SCIENCES (NANJING), INC., priority 2022, published 2026)
